Assays:
[1] = compound: C1CC(C1)(C(=O)[O-])C(=O)[O-].N.N.[Pt+2] [Carboplatin]; conditions: max 10 µM
Procedure, shortened: (§1)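 Plates with 1536 wells received cancer cell lines in 7.5 μl of DMEM/F12 or RPMI containing 10% FBS. After 24 hours at 37°C and 5% CO2, cells were dosed for 72 hours with final DMSO typically 0.2%, and viability was read by CellTiter-Glo 2.0 luminescence scaled between blank-well and DMSO-well means. The single-agent IC50 was taken from a logistic fit of the dose responses made with a non-linear mixed effects model, that logistic curve having two parameters.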

[2] = compound: C1CN(CCC1(C(=O)N[C@@H](CCO)C2=CC=C(C=C2)Cl)N)C3=NC=NC4=C3C=CN4 [AZD5363]; conditions: max 10 µM
Procedure, shortened: as §1

[3] = compound: C=CCn1c(=O)c2cnc(Nc3ccc(N4CCN(C)CC4)cc3)nc2n1-c1cccc(C(C)(C)O)n1 [AZD1775]; conditions: max 3 µM
Procedure, shortened: as §1

[4] = compound: CC(=O)Nc1cccc(-n2c(=O)n(C3CC3)c(=O)c3c(Nc4ccc(I)cc4F)n(C)c(=O)c(C)c32)c1 [Trametinib]; conditions: max 1 µM
Procedure, shortened: as §1

[5] = compound: CC(=O)O[C@H]1C(=O)[C@@]2(C)[C@H]([C@H](OC(=O)c3ccccc3)[C@]3(O)C[C@H](OC(=O)[C@H](O)[C@@H](NC(=O)c4ccccc4)c4ccccc4)C(C)=C1C3(C)C)[C@]1(OC(C)=O)CO[C@@H]1C[C@@H]2O [Paclitaxel]; conditions: max 3 µM
Procedure, shortened: as §1

[6] = compound: CC(=O)c1c(C)c2cnc(Nc3ccc(N4CCNCC4)cn3)nc2n(C2CCCC2)c1=O [Palbociclib]; conditions: max 10 µM
Procedure, shortened: as §1

[7] = compound: CC(C)n1c(=O)n(C)c2cnc3cc(F)c(-c4ccc(OCCCN5CCCCC5)nc4)cc3c21 [AZD1390]; conditions: max 0.3 µM
Procedure, shortened: as §1

[8] = compound: CC1(C)CCC(CN2CCN(c3ccc(C(=O)NS(=O)(=O)c4ccc(NCC5CCOCC5)c([N+](=O)[O-])c4)c(Oc4cnc5[nH]ccc5c4)c3)CC2)=C(c2ccc(Cl)cc2)C1 [Venetoclax]; conditions: max 1 µM
Procedure, shortened: as §1

[9] = compound: CC1=C(C(=CC=C1)Cl)NC(=O)C2=CN=C(S2)NC3=CC(=NC(=N3)C)N4CCN(CC4)CCO [Dasatinib]; conditions: max 2 µM
Procedure, shortened: as §1

[10] = compound: CC1=CN2[C@@H](C1)C=NC3=CC(=C(C=C3C2=O)OC)OCCCCCOC4=C(C=C5C(=C4)N=C[C@@H]6CC(=CN6C5=O)C)OC [SG3199]; conditions: max 0.001 µM
Procedure, shortened: as §1

[11] = compound: CCN(CCO)CCCOc1ccc2c(Nc3cc(CC(=O)Nc4cccc(F)c4)[nH]n3)ncnc2c1 [AZD2811]; conditions: max 1 µM
Procedure, shortened: as §1

[12] = compound: CCc1c2c(nc3ccc(O)cc13)-c1cc3c(c(=O)n1C2)COC(=O)[C@]3(O)CC [SN-38]; conditions: max 0.3 µM
Procedure, shortened: as §1

[13] = compound: CN(C)CCCOc1ccc(-c2ccc3ncc4c(c3c2)n(C2CCOCC2)c(=O)n4C)cn1 [AZD0156]; conditions: max 3 µM
Procedure, shortened: as §1

[14] = compound: CN(CC[C@H](CSC1=CC=CC=C1)NC2=C(C=C(C=C2)S(=O)(=O)NC(=O)C3=CC=C(C=C3)N4CCC(CC4)[C@H](C5=CC=CC=C5C6=CC=C(C=C6)Cl)O)S(=O)(=O)C(F)(F)F)CCO [AZD4320]; conditions: max 1 µM
Procedure, shortened: as §1

[15] = compound: COc1cc(Nc2ncc3c(n2)-c2ccc(Cl)cc2C(c2c(F)cccc2OC)=NC3)ccc1C(=O)O [Alisertib]; conditions: max 10 µM
Procedure, shortened: as §1

[16] = compound: COc1cc([C@@H]2c3cc4c(cc3[C@@H](O[C@@H]3O[C@@H]5CO[C@@H](C)O[C@H]5[C@H](O)[C@H]3O)[C@H]3COC(=O)[C@H]23)OCO4)cc(OC)c1O [Etoposide]; conditions: max 10 µM
Procedure, shortened: as §1

[17] = compound: COc1cc2ncnc(Nc3ccc(F)c(Cl)c3)c2cc1OCCCN1CCOCC1 [Gefitinib]; conditions: max 10 µM
Procedure, shortened: as §1

[18] = compound: COc1cccc(OCCCN)c1-c1cc(Nc2cnc(C#N)cn2)n[nH]1 [Prexasertib]; conditions: max 1 µM
Procedure, shortened: as §1

[19] = compound: COc1cccc2c1C(=O)c1c(O)c3c(c(O)c1C2=O)C[C@@](O)(C(=O)CO)C[C@@H]3O[C@H]1C[C@H](N)[C@H](O)[C@H](C)O1 [Doxorubicin]; conditions: max 1 µM
Procedure, shortened: as §1

[20] = compound: COc1nnc2ccc(N3CCC(c4ccc(OCCN5CCN(C)C(=O)[C@H]5C)cc4)CC3)nn12 [AZD5153]; conditions: max 1 µM
Procedure, shortened: as §1

[21] = compound: CS(=O)(=O)CCNCc1ccc(-c2ccc3ncnc(Nc4ccc(OCc5cccc(F)c5)c(Cl)c4)c3c2)o1 [Lapatinib]; conditions: max 10 µM
Procedure, shortened: as §1

[22] = compound: C[C@@H](Nc1cc(F)cc(F)c1)c1cc(C(=O)N(C)C)cc2c(=O)cc(N3CCOCC3)oc12 [AZD8186]; conditions: max 10 µM
Procedure, shortened: as §1

[23] = compound: C[C@@H](Oc1cc(-c2cnn(C3CCNCC3)c2)cnc1N)c1c(Cl)ccc(F)c1Cl [Crizotinib]; conditions: max 10 µM
Procedure, shortened: as §1

[24] = compound: C[C@@H](c1ccc2nccn2c1)n1nnc2ncc(-c3cnn(C)c3)nc21 [Savolitinib]; conditions: max 1 µM
Procedure, shortened: as §1

[25] = compound: C[C@@H]1COCCN1C2=NC(=NC(=C2)C3(CC3)[S@](=N)(=O)C)C4=C5C=CNC5=NC=C4 [AZD6738]; conditions: max 10 µM
Procedure, shortened: as §1

[26] = compound: Cc1c2c(nn1C)CSCc1cc(n(C)n1)CSc1cc(c3ccccc3c1)OCCCc1c(C(=O)O)n(C)c3c-2c(Cl)ccc13 [AZD5991]; conditions: max 1 µM
Procedure, shortened: as §1

[27] = compound: Cc1cc2ncnn2cc1Nc1ncc2c(n1)n(C1CCOCC1)c(=O)n2C [AZD7648]; conditions: max 10 µM
Procedure, shortened: as §1

[28] = compound: Cc1nc(-c2cn3c(n2)-c2ccc(-c4cnn(C(C)(C)C(N)=O)c4)cc2OCC3)n(C(C)C)n1 [Taselisib]; conditions: max 10 µM
Procedure, shortened: as §1

[29] = compound: Cn1cnc2c(F)c(Nc3ccc(Br)cc3Cl)c(C(=O)NOCCO)cc21 [Selumetinib]; conditions: max 10 µM
Procedure, shortened: as §1

[30] = compound: N#Cc1cnc(Nc2cc(NC[C@H]3CNCCO3)c(C(F)(F)F)cn2)cn1 [SRA737]; conditions: max 10 µM
Procedure, shortened: as §1

[31] = compound: NC1(c2ccc(-c3nc4ccn5c(=O)[nH]nc5c4cc3-c3ccccc3)cc2)CCC1 [MK-2206]; conditions: max 10 µM
Procedure, shortened: as §1

[32] = compound: Nc1ccn([C@@H]2O[C@H](CO)[C@@H](O)C2(F)F)c(=O)n1 [Gemcitabine]; conditions: max 0.3 µM
Procedure, shortened: as §1

[33] = compound: O=C(Nc1ccc2[nH]nc(-c3ccncc3)c2c1)[C@@H]1CCN(CC(=O)N2CCN(c3ccc(-c4ncccn4)cc3)CC2)C1; conditions: max 5 µM
Procedure, shortened: as §1

[34] = compound: O=C(c1cc(Cc2n[nH]c(=O)c3ccccc23)ccc1F)N1CCN(C(=O)C2CC2)CC1 [Olaparib]; conditions: max 10 µM
Procedure, shortened: as §1

[35] = compound: O=c1[nH]cc(F)c(=O)[nH]1 [5-Fluorouracil]; conditions: max 20 µM
Procedure, shortened: as §1

| Cell Line | IC50, cell viability 72 h [1] [µM] | IC50, cell viability 72 h [2] [µM] | IC50, cell viability 72 h [3] [µM] | IC50, cell viability 72 h [4] [µM] | IC50, cell viability 72 h [5] [µM] | IC50, cell viability 72 h [6] [µM] | IC50, cell viability 72 h [7] [µM] | IC50, cell viability 72 h [8] [µM] | IC50, cell viability 72 h [9] [µM] | IC50, cell viability 72 h [10] [µM] | IC50, cell viability 72 h [11] [µM] | IC50, cell viability 72 h [12] [µM] | IC50, cell viability 72 h [13] [µM] | IC50, cell viability 72 h [14] [µM] | IC50, cell viability 72 h [15] [µM] | IC50, cell viability 72 h [16] [µM] | IC50, cell viability 72 h [17] [µM] | IC50, cell viability 72 h [18] [µM] | IC50, cell viability 72 h [19] [µM] | IC50, cell viability 72 h [20] [µM] | IC50, cell viability 72 h [21] [µM] | IC50, cell viability 72 h [22] [µM] | IC50, cell viability 72 h [23] [µM] | IC50, cell viability 72 h [24] [µM] | IC50, cell viability 72 h [25] [µM] | IC50, cell viability 72 h [26] [µM] | IC50, cell viability 72 h [27] [µM] | IC50, cell viability 72 h [28] [µM] | IC50, cell viability 72 h [29] [µM] | IC50, cell viability 72 h [30] [µM] | IC50, cell viability 72 h [31] [µM] | IC50, cell viability 72 h [32] [µM] | IC50, cell viability 72 h [33] [µM] | IC50, cell viability 72 h [34] [µM] | IC50, cell viability 72 h [35] [µM] |
| --- | --- | --- | --- | --- | --- | --- | --- | --- | --- | --- | --- | --- | --- | --- | --- | --- | --- | --- | --- | --- | --- | --- | --- | --- | --- | --- | --- | --- | --- | --- | --- | --- | --- | --- | --- |
| COR-L95 (Small Cell Lung Carcinoma) | > 10 | > 10 | > 3 | > 1 | > 3 | > 10 | > 0.3 | 0.392 | > 2 | > 0.001 | > 1 | 0.0149 | > 3 | 0.00732 | > 10 | > 10 | > 10 | 0.123 | 0.15 | > 1 | > 10 | > 10 | > 10 | > 1 | > 10 | > 1 | > 10 | > 10 | > 10 | > 10 | > 10 | > 0.3 | > 5 | > 10 | > 20 |
| DB (B-Cell Non-Hodgkin's Lymphoma) | > 10 | > 10 | 0.526 | > 1 | 0.00571 | 7.68 | > 0.3 | 0.119 | > 2 | > 0.001 | 0.537 | 0.00452 | > 3 | 0.143 | 3.88 | 3.69 | > 10 | 0.21 | 0.251 | 0.21 | > 10 | > 10 | 7.97 | > 1 | > 10 | 0.109 | > 10 | > 10 | > 10 | > 10 | > 10 | 0.00896 | > 5 | > 10 | > 20 |

Source: the supplement of paper PMC11061612
